Assay results reported in patent US20060110333A1 (priority 2002, published 2006).

Assay: Plasma buprenorphine concentration after single administration (LC-MS/MS)
Settings: 0.1 mg/kg in terms of buprenorphine, cynomolgus monkey

CO[C@@]12CC[C@@]3(C[C@@H]1[C@](C)(O)C(C)(C)C)[C@H]1Cc4ccc(O)c5c4[C@@]3(CCN1CC1CC1)[C@H]2O5.Cl [Comparative Example 2, buprenorphine hydrochloride]
Plasma buprenorphine concentration (0 min, mean ± SD, intravenous): 0 ng/mL | Plasma buprenorphine concentration (10 min, Animal 1, intravenous): 41.40 ng/mL | Plasma buprenorphine concentration (10 min, Animal 2, intravenous): 32.16 ng/mL | Plasma buprenorphine concentration (10 min, Animal 3, intravenous): 41.33 ng/mL | Plasma buprenorphine concentration (10 min, mean ± SD, intravenous): 38.30 ± 5.31 ng/mL | Plasma buprenorphine concentration (30 min, Animal 1, intravenous): 32.83 ng/mL | Plasma buprenorphine concentration (30 min, Animal 2, intravenous): 18.02 ng/mL | Plasma buprenorphine concentration (30 min, Animal 3, intravenous): 33.53 ng/mL | Plasma buprenorphine concentration (30 min, mean ± SD, intravenous): 28.12 ± 8.76 ng/mL | Plasma buprenorphine concentration (60 min, Animal 1, intravenous): 16.85 ng/mL | Plasma buprenorphine concentration (60 min, Animal 2, intravenous): 16.45 ng/mL | Plasma buprenorphine concentration (60 min, Animal 3, intravenous): 26.51 ng/mL | Plasma buprenorphine concentration (60 min, mean ± SD, intravenous): 19.94 ± 5.70 ng/mL | Plasma buprenorphine concentration (120 min, Animal 1, intravenous): 8.27 ng/mL | Plasma buprenorphine concentration (120 min, Animal 2, intravenous): 9.34 ng/mL | Plasma buprenorphine concentration (120 min, Animal 3, intravenous): 16.13 ng/mL | Plasma buprenorphine concentration (120 min, mean ± SD, intravenous): 11.25 ± 4.26 ng/mL | Plasma buprenorphine concentration (240 min, Animal 1, intravenous): 3.78 ng/mL | Plasma buprenorphine concentration (240 min, Animal 2, intravenous): 4.55 ng/mL | Plasma buprenorphine concentration (240 min, Animal 3, intravenous): 7.05 ng/mL | Plasma buprenorphine concentration (240 min, mean ± SD, intravenous): 5.13 ± 1.71 ng/mL | Plasma buprenorphine concentration (480 min, Animal 1, intravenous): 1.46 ng/mL | Plasma buprenorphine concentration (480 min, Animal 2, intravenous): 0.97 ng/mL | Plasma buprenorphine concentration (480 min, Animal 3, intravenous): 2.00 ng/mL | Plasma buprenorphine concentration (480 min, mean ± SD, intravenous): 1.48 ± 0.52 ng/mL
